Source: patent publication US8790678B2, “Biomaterials having nanoscale layers and coatings” (Washington University, priority 2006, dated 2014)
Bridges are numbered along the chain shown (N, C = ends). Where no end group is shown, it is not given here.

Tests used:
[1] = Hydrogel mesh size by modified SDS-PAGE gel; format: physicochemical; details: PEG-OVS/albumin layer in SDS-PAGE gel
Experimental: The mesh size of PEG-OVS/albumin hydrogels was investigated using a modified SDS-PAGE gel to characterize the migration of albumin through the PEG hydrogels. A 15% acrylamide gel was formed at the bottom of the casting chamber, with a spacer to form a well on the left side of the gel. After the acrylamide solidified, the PEG-OVS/albumin precursor solution was pipetted into the formed well. The casting stand was placed in a humidified 37° C. incubator for 24 h to crosslink the PEG gel. A 7% acrylamide gel was formed over the polymerized gels, followed by a stacking gel. A solution of bovine serum albumin (BSA) was loaded into the wells of the gel, which was run under standard conditions. The gel was stained with Coomassie Blue.

[2] = system: D-erythro-sphingosine; assay: Activity of GST-tagged sphingosine kinase by TLC; format: biochemical, human; details: 10 μg/mL protein, 50 μM D-erythro-sphingosine
Source text: Hydrogels were formed with the enzyme sphingosine kinase to produce S1P in the materials from a precursor (sphingosine) naturally present in the blood. Human sphingosine kinase was cloned by RT-PCR from human umbilical vein endothelial cell mRNA. The PCR insert with the correct sequence was transferred from the cloning vector to the expression vector, pGEX-6P-1, using the restriction enzymes EcoRI and XhoI, to create an N-terminal GST-tagged sphingosine kinase [SEQ ID NO. 1]. The plasmid with the correct sequence was transfected into BL21 E. coli and the cells were grown to OD600 0.6 in LB medium. Protein expression was induced with 1 mM IPTG. After 3 h, the cells were harvested by centrifugation for 20 min at 6000 g, 4° C. The cells were lysed with lysozyme and sonication. The lysate was centrifuged at 50,000 g for 45 min at 4° C. and the supernatant was filtered. The GST-containing protein was purified using GSTrap FF columns. Activity of the protein (10 μg/mL) was assessed by incubation with 50 μM D-erythro-sphingosine and […] in 0.1% BSA in PBS for 0-30 min, followed by dilution 1:1 with methanol and acidification to pH 1 with HCl. Lipids were extracted into chloroform and analyzed by thin layer chromatography on silica plates with butanol-acetic acid-water 6:2:2, with detection by ninhydrin. There was complete conversion to sphingosine 1-phosphate within 30 min.

[3] = system: chorioallantoic membrane (CAM); assay: Chick chorioallantoic membrane (CAM) angiogenesis assay; format: in vivo, chicken; details: 50 ng spotted on Thermanox coverslip, two days
Experimental: Embryonated chicken eggs were incubated blunt-end up in a 37° C. incubator. At embryonal day 6, the top of the egg was cracked and removed using tweezers to create a 1.5 cm diameter opening. The inner shell membrane was removed, exposing the CAM. A 20 μL PEG hydrogel was then placed onto the CAM. As controls, 50 ng bFGF or 50 ng S1P were spotted onto small pieces of Thermanox coverslips (Nunc), air dried and placed onto the CAM. The eggs were sealed with parafilm and returned to the incubator. After two days of incubation, the eggs were reopened and the degree of angiogenesis was visually assessed.

[4] = system: Human Umbilical Vein Endothelial Cells (HUVEC); assay: Cell adhesion assay on layer-by-layer PEG hydrogel coatings; format: cell-based; details: RGD peptide attached to PEG-VS/PEG-diamine hydrogel; medium containing serum proteins
Experimental: Hydrogels were formed layer-by-layer by conjugate addition reactions between PEG-VS and PEG-diamine. First, the surface of the substrate was activated to create reactive amine groups. Clean glass coverslips were incubated in 2% 3-aminopropyltriethoxysilane in dry acetone solution for one hour with gentle shaking. The aminophase coverslips were then cured at 100° C. for a 3 h, and stored in a clean Petri dish until use. The activated substrates were incubated with a solution containing 1% eight-arm PEG-VS overnight at pH 8.5 and 37° C. The substrates were subsequently incubated with a solution of 1% PEG-diamine (mol. wt. 3400, Shearwater Polymers) for 1 h at 37° C. This two-step process was repeated to create multiple layers (one layer comprises PEG-VS+PEG-diamine). Between incubations with PEG-VS or PEG-diamine, the surfaces were washed six times with PBS. After the formation of five layers, the substrates were incubated with PEG-VS for 1 h at 37° C. […]
The RGD peptide acetyl-GCGYGRGDSPG [SEQ ID NO. […] The peptide was purified by C18 chromatography and analyzed by MALDI-TOF mass spectrometry. […]
Human Umbilical Vein Endothelial Cells (HUVEC, Clonetics) were grown in endothelial cell growth medium (EGM, Clonetics) on tissue culture polystyrene at 37° C. and 5% CO2. […] Cells on the surfaces were imaged by phase contrast microscopy and the number of cells was counted manually.

[5] = system: HAEC; assay: Centrifugation assay of cell adhesion strength on RGD hydrogels; format: cell-based, human; details: range as RGD concentration in PEG-OVS/albumin hydrogel was increased; 6 h adhesion
Experimental: Cell adhesion strengths to the RGD containing hydrogel surfaces were assessed using a centrifugation assay to apply controlled detachment forces. PEG hydrogels (75 μL) of various concentrations of RGD were formed on the bottom of a 48-well non-treated culture plate. Following crosslinking for 24 h, HAEC were seeded onto the gels at 10,000 cells/cm^2 in 500 μL EGM. After 6 h to allow the cells to attach and spread, the gels were washed with DPBS. The wells were filled with DPBS to the top of the wells and then covered with adhesive sealing tape. Images were obtained at 4× to quantify the number of cells initially attached to the hydrogel. […] The percent of cells remaining on the hydrogel was quantified. […]
The effects of changing the linear RGD concentration on the initial adhesion strength of endothelial cells to PEG-OVS/albumin hydrogels were examined. […] Cell adhesion strengths were assessed by centrifugation of inverted, sealed plates containing hydrogels polymerized in the bottoms of wells. The percent of cells remaining adhered to the hydrogels after centrifugation for 5 min was measured for various forces of detachment on each concentration of linear RGD. […]
The initial adhesion strength of endothelial cells to the PEG hydrogels containing cyclic RGD peptide was measured after 6 hours to allow for endothelial cell adhesion. […]

[6] = system: Human aortic endothelial cells; assay: Single cell tracking on RGD/PEG-OVS/albumin hydrogels under fluid shear stress; format: cell-based; details: for loss of cells from the hydrogel: highest RGD concentration, over 12 h
Experimental: Human aortic endothelial cells seeded onto RGD/PEG-OVS/albumin hydrogels at 1000-2000 cells/cm^2 were tracked under 20 dynes/cm^2 fluid shear stress in HEPES-buffered low serum medium (HEPES-LSM; MCDB 131 with 0.1% FBS, 1% ABAM, […] HEPES, pH 7.4) containing 0.4% FAF-BSA for 12 h.
Time lapse microscopy images were obtained every 2 min for 12 h of endothelial cell migration on the surface of RGD containing PEG hydrogels. The percent of cells remaining on the gels during the course of the experiment was recorded for each RGD concentration. The projected cell areas of all cells were determined by manually outlining the cells after 3 h under 20 dyne/cm^2 shear stress. Single endothelial cells were manually tracked for 12 h to obtain XY-coordinate data for the center of each cell. Coordinate data from every six minutes (Δt=6 min) for all cells in each experiment were saved as variables for analysis in MATLAB (The MathWorks, Natick, Mass.). At each time point i, ti=iΔt, the mean squared displacement was calculated using the overlapping interval method. The speed of each individual was calculated by dividing the root mean-square displacement for a single time interval by the tracking interval (6 min). Each cell's persistence time was determined by fitting the persistent random walk model given by Equation 1: <d^2(t)>=2S^2P[t−P(1−e^−t/P)] [1] using the calculated speed by nonlinear least squares regression analysis as previously described (Dunn 1983; Othmer, Dunbar and Alt 1988; Harms et al. 2005). Speed simply represents the total path length of a cell over time. Persistence time represents the time period between changes in the direction of movement of more than 60°. Path length is calculated as the product of speed and persistence time. Cell dispersion is the product of speed squared and persistence time. Cell areas were obtained by manually tracing cells. All data was analyzed by ANOVA Scheffe post hoc. Endothelial Response to Linear RGD Concentration—Cell Attachment Strength

[7] = Sulforhodamine B release from preloaded hydrogels; format: physicochemical; details: 500 nmol preloaded, 554 nm
Experimental: The effect of gel mesh size on the diffusion of small molecules was tested using a water-soluble dye molecule, sulforhodamine B. Sulforhodamine B (500 nmol) was preloaded into gels formed with PEG-OVS crosslinked with albumin, PEG-diamine, or DTT. The gels were incubated win PBS and the release of sulforhodamine B was detected by visible light spectroscopy at 554 nm over time. The molecular weight of sulforhodamine is 580.7, compared to 379.5 for S1P, and the diffusivity of the dye would be expected to be lower than that of S1P. Using the Wilke-Chang correlation, we calculated a diffusion coefficient of 3.42×10^−6 cm^2/sec for sulforhodamine and 4.15×10^−6 cm^2/sec for S1P, both at 37° C.

With aprotinin the “migration of protein through the PEG hydrogel” value [1] was “freely passed through”.
With “Albumin: bovine serum albumin loaded on the SDS-PAGE gel” the “migration of protein through the PEG hydrogel” value [1] was “hindered”.
In the case of “N-terminal GST-tagged sphingosine kinase: human sphingosine kinase cloned from HUVEC mRNA with N-terminal GST tag”, the “time to complete conversion to sphingosine 1-phosphate” value [2] is reported as ≤ 30 min.
In the case of “bFGF: control angiogenic factor in CAM assay”, the angiogenic response [3] is reported as “strong angiogenic responses”.
In the case of “acetyl-GCGYGRGDSPG (Ac-GCGYGRGDSPG; not fully specified (C-terminus); printed as acetyl-GCGYGRGDSPG) [linear RGD, cell adhesion-promoting peptide]”, the “HUVEC adhesion to multilayered PEG hydrogel” value [4] is reported as “restored HUVEC adhesion”, the “detachment force required to remove 50% of the cells (F50)” value [5] is reported as 850-1120 pN and the “loss of cells from the hydrogel” value ([6]; 20 dyne/cm^2) is reported as “less than 5%”. For the same compound, the “RGD concentration of maximum dispersion” value ([6]; without S1P) was 4.12 mM, the “RGD concentration of maximum path length” value ([6]; without S1P) was 4.12 mM and the “RGD concentration of maximum cell speed” value ([6]; without S1P, 20 dynes/cm^2) was 4.12 mM.
With “Ac-GCNAC*RGDGWC*G (Ac-GCNACRGDGWCG; disulfide 5-11) [cyclic RGD, cyclic RGD peptide cyclized by disulphide formation]” the “cell migration speed relative to cells without RGD” value ([6]; 0.69 mM cyclic RGD, 100 nM S1P) was “more than twice”, the “migration speed greater than the highest speed on linear RGD with 100 nM S1P” value ([6]; 0.69 mM cyclic RGD, 100 nM S1P) was 44% and the “loss of cells from the hydrogel” value ([6]; 20 dyne/cm^2) was “about 20%”. For the same compound, the “RGD concentration of peak migration speed” value ([6]; with 100 nM S1P, 20 dyne/cm^2) was 0.69 mM.
For `CCN(CC)c1ccc2c(-c3ccc(S(=O)(=O)O)cc3S(=O)(=O)[O-])c3ccc(=[N+](CC)CC)cc-3oc2c1` [sulforhodamine B], the “time to near complete release of dye into PBS” value [7] was ~6 h.
For “lysozyme: molecular weight marker (14.4 kDa)”, the “migration of protein through the PEG hydrogel” value [1] was “freely passed through”.
